Assay results as given in patent US20110039762A1, “TARGETED ANTIMICROBIAL MOIETIES” (C3 JIAN, INC., priority 2009, published 2011).
Entries after “also recorded” stand apart in the source; their conditions may differ.

Legend:
MRSA = test: Kill or inhibit growth/proliferation; morphology, biofilm and growth disruption (Tables 5, 6); format: cell-based, Methicillin-resistant Staphylococcus aureus; design: key: A: Peptide aggregates; B: Less hyphal formation; Clumps; Diffuse clumps and small polyps; F: Diffuse growth; H: Thin; I: Growth inhibition; Microcolony formation; Rippled; Small polyps; Thick; W: Halo formation on top, microlonies on bottom; also: test concentration or dose not given here
S. epidermidis = test: as above; format: cell-based, Staphylococcus epidermidis; design: key: A: Peptide aggregates; B: Less hyphal formation; Clumps; Diffuse clumps and small polyps; F: Diffuse growth; H: Thin; I: Growth inhibition; Microcolony formation; Rippled; Small polyps; Thick; W: Halo formation on top, microlonies on bottom
C. jeikeium = test: as above; format: cell-based, Corynebacterium jeikeium; design: key: A: Peptide aggregates; B: Less hyphal formation; Clumps; Diffuse clumps and small polyps; F: Diffuse growth; H: Thin; I: Growth inhibition; Microcolony formation; Rippled; Small polyps; Thick; W: Halo formation on top, microlonies on bottom
microorganisms = test: Peptides having multiple activities (targeting/binding, antimicrobial, growth or phenotype altering)
Description: In certain embodiments, peptides described herein can have multiple activities. Thus for example, a peptide can have both binding/targeting activity and antimicrobial activity. Such peptides can be used, e.g., in a chimeric construct, for any or all of these properties. Thus, for example, a peptide designated “B” in Table 8 can be used as a targeting peptide. If it is also designated G or M it can also be used for antimicrobial activity.

M. luteus = test: Kill or inhibit growth/proliferation; morphology, biofilm and growth disruption (Tables 5, 6); format: cell-based, Micrococcus luteus; design: key: A: Peptide aggregates; B: Less hyphal formation; Clumps; Diffuse clumps and small polyps; F: Diffuse growth; H: Thin; I: Growth inhibition; Microcolony formation; Rippled; Small polyps; Thick; W: Halo formation on top, microlonies on bottom; also: test concentration or dose not given here
[1] = system: microorganisms (e.g., bacteria, yeasts, fungi); test: Targeting peptide binding to target microorganisms (Table 3); settings: preferably 1x PBS; for Target(s): microorganism(s) the targeting peptide binds; for Target(s) (microorganisms bound by the targeting peptide): peptide binding in aqueous buffers varied by peptide solubility
E. coli = test: Kill or inhibit growth/proliferation; morphology, biofilm and growth disruption (Tables 5, 6); format: cell-based, Escherichia coli; design: key: A: Peptide aggregates; B: Less hyphal formation; Clumps; Diffuse clumps and small polyps; F: Diffuse growth; H: Thin; I: Growth inhibition; Microcolony formation; Rippled; Small polyps; Thick; W: Halo formation on top, microlonies on bottom; also: test concentration or dose not given here
S. pneumoniae = test: as above; format: cell-based, Streptococcus pneumoniae; design: key: A: Peptide aggregates; B: Less hyphal formation; Clumps; Diffuse clumps and small polyps; F: Diffuse growth; H: Thin; I: Growth inhibition; Microcolony formation; Rippled; Small polyps; Thick; W: Halo formation on top, microlonies on bottom; also: test concentration or dose not given here
E. faecalis = test: as above; format: cell-based, Enterococcus faecalis; design: key: A: Peptide aggregates; B: Less hyphal formation; Clumps; Diffuse clumps and small polyps; F: Diffuse growth; H: Thin; I: Growth inhibition; Microcolony formation; Rippled; Small polyps; Thick; W: Halo formation on top, microlonies on bottom; also: test concentration or dose not given here
For Organism, effect (morphology, biofilm and growth disruption) in this document: test concentration or dose not given here.
For Organism, effect in this document: test concentration or dose not given here.

Substance	Organism, effect (MRSA)	Organism, effect (S. epidermidis)	Organism, effect (C. jeikeium)	Activities (microorganisms)	Organism, effect (M. luteus)	further results
PF-001: peptide having multiple activities (chain 1 MNNWIIVAQLSVTVINEIIDIMKEKQKGGK; chain 2 MNNWIIVAQLSVTVINEIIDIMKEKQKGGK; Peptide with targeting and/or antimicrobial activity)	MRSA (R)	S. epidermidis (C)	C. jeikeium (D)	G B	M. luteus (C)	–
PF-004: peptide having multiple activities (chain 1 ARLSKAIIIAVIVVYHLDVRGLF; chain 2 ARLSKAIIIAVIVVYHLDVRGLF; Peptide with targeting and/or antimicrobial activity)	MRSA (R)	S. epidermidis (A)	C. jeikeium (A)	G B	M. luteus (A)	–
PF-139: peptide having multiple activities (ALSKPAIQARTLCRRQDPP; Peptide with targeting and/or antimicrobial activity)	–	S. epidermidis (M)	C. jeikeium (R)	G B	M. luteus (C)	–
PF-176: peptide having multiple activities (RLTSNQFLTRITPFVFAQH; Peptide with targeting and/or antimicrobial activity)	–	S. epidermidis (C)	C. jeikeium (D)	G B	M. luteus (C)	Target(s) ([1]; binding in aqueous buffers depending on peptide solubility): S. epidermidis and M. luteus and P. mirabilis and E. coli and C. albicans and MRSA and E. faecalis and C. jeikeium
PF-199 (FPAFSFGAIAGSVSVAR; Peptide with targeting and/or antimicrobial activity)	–	S. epidermidis (C)	C. jeikeium (R)	–	M. luteus (A)	–
PF-546: peptide having multiple activities (chain 1 PIIAPTIKTQIQ; chain 2 PIIAPTIKTQIQ; Peptide with targeting and/or antimicrobial activity)	MRSA (D)	S. epidermidis (D)	C. jeikeium (D)	G B	–	Target(s) ([1]; peptide binding conducted in aqueous buffers varied by peptide solubility): S. epidermidis; also recorded: E. coli; also recorded: C. albicans; also recorded: S. pneumoniae; also recorded: E. faecalis; also recorded: C. jeikeium; Organism, effect (E. coli): E. coli (R); Organism, effect (S. pneumoniae): S. pneumoniae (D); Organism, effect (E. faecalis): E. faecalis (D)
PF-637: peptide having multiple activities (chain 1 SRIKQDARSVRKYDRIGIFFYSFKSA; chain 2 SRIKQDARSVRKYDRIGIFFYSFKSA; Peptide with targeting and/or antimicrobial activity)	MRSA (M)	S. epidermidis (M)	C. jeikeium (D)	G B	–	Target(s) (microorganisms bound by the targeting peptide) [1]: S. epidermidis and P. aeruginosa and C. albicans and MRSA and S. pneumoniae and E. faecalis and C. jeikeium; Organism, effect (S. pneumoniae): S. pneumoniae (M); Organism, effect (E. faecalis): E. faecalis (D)
PF-681: peptide having multiple activities (chain 1 TALTTVGVSGARLITYCVGVEDI; chain 2 TALTTVGVSGARLITYCVGVEDI; Peptide with targeting and/or antimicrobial activity)	–	–	–	G B	–	Target(s) (microorganisms bound by the targeting peptide) [1]: M. smegmatis; Organism, effect (morphology, biofilm and growth disruption) (MRSA): MRSA (M); Organism, effect (morphology, biofilm and growth disruption) (S. epidermidis): S. epidermidis (M); Organism, effect (morphology, biofilm and growth disruption) (S. pneumoniae): S. pneumoniae (M); Organism, effect (morphology, biofilm and growth disruption) (C. jeikeium): C. jeikeium (R); Organism, effect (morphology, biofilm and growth disruption) (E. faecalis): E. faecalis (R)
